Measured values taken from patent US10246466B2, “Diaryl macrocycles as modulators of protein kinases” (TP THERAPEUTICS, INC., priority 2014, dated 2019).

What was measured:
Assay type in all cases: cell-based
[1] = system: Colorectal cell line KM12 (harboring endogenous TPM3-TRKA fusion gene); test: KM12 cell proliferation assay (CellTiter-Glo); details: Homo sapiens, 72 hours incubation, read-out: KM 12 cell prolif. IC50
Procedure: (§1) Colorectal cell lines KM 12 (harboring endogenous TPM3-TRKA fusion gene) cells were cultured in DMEM medium, supplemented with 10% fetal bovine serum and 100 U/mL of penicillin/streptomycin. 5000 cells were seeded in 384 well white plate for 24 hours before compounds treatment. Cell proliferation was measured using CellTiter-Glo luciferase-based ATP detection assay (Promega) following the manufactures's protocol after 72 hours incubation. IC50 determinations were performed using GraphPad Prism software (GraphPad, Inc., San Diego, Calif.).
as §1, with “Alternatively: Colorectal” for “Colorectal”, “line KM12” for “lines KM 12”, “penicillin/streptomycin. […]” for “penicillin/streptomycin.”

[2] = system: Essential thrombocythemia cell line SET-2 cells (harboring endogenous JAK2 point mutation); test: SET-2 cell proliferation assay (CellTiter-Glo); details: Homo sapiens, 72 hours incubation, read-out: SET2 cell proli. IC50
[3] = system: T cell lymphoma Karpas-299 cell line (harboring endogenous NPM-ALK fusion gene); test: Karpas-299 cell proliferation assay (CellTiter-Glo); details: Homo sapiens, 72 hours incubation, read-out: Karpas 299 cell proli. IC50

Compound: CCCN1Cc2cc(F)ccc2OCCNC(=O)c2cnn3ccc1nc23 [Example 44, 11-fluoro-14-propyl-6,7,13,14-tetrahydro-1,15-ethenopyrazolo[4,3-f][1,4,8,10]benzoxatriazacyclotridecin-4(5H)-one]
- IC50 [1]: 9.9 nM
- IC50 [2]: 2030 nM
- IC50 [3]: 4100 nM

Compound: O=C1NCCOc2ccc(F)cc2CN(C2CC2)c2ccn3ncc1c3n2 [Example 46, 14-cyclopropyl-11-fluoro-6,7,13,14-tetrahydro-1,15-ethenopyrazolo[4,3-f][1,4,8,10]benzoxatriazacyclotridecin-4(5H)-one]
- IC50 [1]: 1.5 nM
- IC50 [2]: 7000 nM
- IC50 [3]: 7100 nM

Compound: O=C1NCCOc2ccc(F)cc2CN(CCO)c2ccn3ncc1c3n2 [Example 47, 11-fluoro-14-(2-hydroxyethyl)-6,7,13,14-tetrahydro-1,15-ethenopyrazolo[4,3-f][1,4,8,10]benzoxatriazacyclotridecin-4(5H)-one]
- IC50 [1]: 31 nM
- IC50 [2]: > 10000 nM
- IC50 [3]: > 10000 nM

Compound: CC1COc2ccc(F)cc2CN(C)c2ccn3ncc(c3n2)C(=O)N1 (stereo not drawn) [Example 48, 11-fluoro-6,14-dimethyl-6,7,13,14-tetrahydro-1,15-ethenopyrazolo[4,3-f][1,4,8,10]benzoxatriazacyclotridecin-4(5H)-one]
- IC50 [1]: 62 nM
- IC50 [2]: 6000 nM
- IC50 [3]: 6000 nM

Compound: COC(=O)C1Nc2ccn3ncc(c3n2)C(=O)NCCOc2ccc(F)cc21 (stereo not drawn) [Example 59, methyl 11-fluoro-4-oxo-4,5,6,7,13,14-hexahydro-1,15-ethenopyrazolo[4,3-f][1,4,8,10]benzoxatriazacyclotridecine-13-carboxylate]
- IC50 [1]: > 1000 nM

Compound: NC(=O)C1Nc2ccn3ncc(c3n2)C(=O)NCCOc2ccc(F)cc21 (stereo not drawn) [Example 60, 11-fluoro-4-oxo-4,5,6,7,13,14-hexahydro-1,15-ethenopyrazolo[4,3-f][1,4,8,10]benzoxatriazacyclotridecine-13-carboxamide]
- IC50 [1]: > 1000 nM

Compound: CN1Cc2cc(F)cnc2OCCNC(=O)c2cnn3ccc1nc23 [Example 61, 11-fluoro-14-methyl-6,7,13,14-tetrahydro-1,15-ethenopyrazolo[4,3-f]pyrido[3,2-1][1,4,8,10]oxatriazacyclotridecin-4(5H)-one]
- IC50 [1]: 0.6 nM
- IC50 [2]: 3750 nM
- IC50 [3]: 3900 nM

Compound: CC(C)N1Cc2cc(F)cnc2OCCNC(=O)c2cnn3ccc1nc23 [Example 62, 11-fluoro-14-(propan-2-yl)-6,7,13,14-tetrahydro-1,15-ethenopyrazolo[4,3-f]pyrido[3,2-1][1,4,8,10]oxatriazacyclotridecin-4(5H)-one]
- IC50 [1]: 0.9 nM
- IC50 [3]: 4000 nM

Compound: O=C1NCCOc2ccc(F)cc2C(C2CC2)Nc2ccn3ncc1c3n2 (stereo not drawn) [Example 66, 13-cyclopropyl-11-fluoro-6,7,13,14-tetrahydro-1,15-ethenopyrazolo[4,3-f][1,4,8,10]benzoxatriazacyclotridecin-4(5H)-one]
- IC50 [1]: 17.5 nM
- IC50 [2]: 1540 nM
- IC50 [3]: 1900 nM

Compound: CC(C)C1Nc2ccn3ncc(c3n2)C(=O)NCCOc2ccc(F)cc21 (stereo not drawn) [Example 67, 11-fluoro-13-(propan-2-yl)-6,7,13,14-tetrahydro-1,15-ethenopyrazolo[4,3-f][1,4,8,10]benzoxatriazacyclotridecin-4(5H)-one]
- IC50 [1]: 2.8 nM
- IC50 [2]: 1230 nM
- IC50 [3]: 1200 nM

Compound: C[C@H]1Nc2ccn3ncc(c3n2)C(=O)NCCCOc2ccc(F)cc21 [Example 76-1, (14R)-12-fluoro-14-methyl-5,6,7,8,14,15-hexahydro-4H-1,16-ethenopyrazolo[4,3-g][1,5,9,11]benzoxatriazacyclotetradecin-4-one]
- IC50 [1]: 5.8 nM
- IC50 [2]: 1000 nM
- IC50 [3]: 3800 nM

Compound: CC1Nc2ccn3ncc(c3n2)C(=O)NCCOc2ccc(Cl)cc21 (stereo not drawn) [Example 84, 11-chloro-13-methyl-6,7,13,14-tetrahydro-1,15-ethenopyrazolo[4,3-f][1,4,8,10]benzoxatriazacyclotridecin-4(5H)-one]
- IC50 [1]: 0.8 nM
- IC50 [2]: 3150 nM
- IC50 [3]: 4200 nM

Compound: CCC1Nc2ccn3ncc(c3n2)C(=O)NCCOc2ccc(F)cc21 (stereo not drawn) [Example 85, 13-ethyl-11-fluoro-6,7,13,14-tetrahydro-1,15-ethenopyrazolo[4,3-f][1,4,8,10]benzoxatriazacyclotridecin-4(5H)-one]
- IC50 [1]: 0.9 nM
- IC50 [2]: 928 nM
- IC50 [3]: 1080 nM

Compound: O=C1NCCOc2ccc(F)cc2C(C2CCC2)Nc2ccn3ncc1c3n2 (stereo not drawn) [Example 86, 13-cyclobutyl-11-fluoro-6,7,13,14-tetrahydro-1,15-ethenopyrazolo[4,3-f][1,4,8,10]benzoxatriazacyclotridecin-4(5H)-one]
- IC50 [2]: 2000 nM
- IC50 [3]: 1000 nM

Compound: [2H]C1([2H])NC(=O)c2cnn3ccc(nc23)N(C)Cc2cc(F)ccc2OC1([2H])[2H] [Example 87, 11-fluoro-14-methyl(6,6,7,7-^2H4)-6,7,13,14-tetrahydro-1,15-ethenopyrazolo[4,3-f][1,4,8,10]benzoxatriazacyclotridecin-4(5H)-one]
- IC50 [1]: 0.3 nM
- IC50 [2]: 2730 nM
- IC50 [3]: 1590 nM

Compound: O=C1NCCOc2ccc(F)cc2C(c2ccccc2)Nc2ccn3ncc1c3n2 (stereo not drawn) [Example 88, 11-fluoro-13-phenyl-6,7,13,14-tetrahydro-1,15-ethenopyrazolo[4,3-f][1,4,8,10]benzoxatriazacyclotridecin-4(5H)-one]
- IC50 [1]: 50.4 nM
- IC50 [2]: 1900 nM
- IC50 [3]: 3130 nM

Compound: O=C1NCCOc2ccc(F)cc2C(CC2CC2)Nc2ccn3ncc1c3n2 (stereo not drawn) [Example 89, 13-(cyclopropylmethyl)-11-fluoro-6,7,13,14-tetrahydro-1,15-ethenopyrazolo[4,3-f][1,4,8,10]benzoxatriazacyclotridecin-4(5H)-one]
- IC50 [1]: 0.2 nM
- IC50 [2]: 859 nM
- IC50 [3]: 1400 nM

Compound: C[C@H]1Nc2ccn3ncc(c3n2)C(=O)NC[C@@H](O)COc2ccc(F)cc21 [Example 90, (7R,14R)-12-fluoro-7-hydroxy-14-methyl-5,6,7,8,14,15-hexahydro-4H-1,16-ethenopyrazolo[4,3-g][1,5,9,11]benzoxatriazacyclotetradecin-4-one]
- IC50 [1]: 1.8 nM
- IC50 [2]: 5910 nM
- IC50 [3]: 1650 nM

Compound: C[C@H]1Nc2ccn3ncc(c3n2)C(=O)NC[C@H](O)COc2ccc(F)cc21 [Example 91, (7S,14R)-12-fluoro-7-hydroxy-14-methyl-5,6,7,8,14,15-hexahydro-4H-1,16-ethenopyrazolo[4,3-g][1,5,9,11]benzoxatriazacyclotetradecin-4-one]
- IC50 [1]: 1.8 nM
- IC50 [2]: 1540 nM
- IC50 [3]: 961 nM

Compound: C[C@@H]1CNC(=O)c2cnn3ccc(nc23)N(C)Cc2cc(F)ccc2O1 [Example 94, (7R)-11-fluoro-7,14-dimethyl-6,7,13,14-tetrahydro-1,15-ethenopyrazolo[4,3-f][1,4,8,10]benzoxatriazacyclotridecin-4(5H)-one]
- IC50 [1]: 0.2 nM
- IC50 [2]: > 10000 nM
- IC50 [3]: > 10000 nM

Compound: C[C@@H]1COc2ccc(F)cc2CN(C)c2ccn3ncc(c3n2)C(=O)N1 [Example 95, (6R)-11-fluoro-6,14-dimethyl-6,7,13,14-tetrahydro-1,15-ethenopyrazolo[4,3-f][1,4,8,10]benzoxatriazacyclotridecin-4(5H)-one]
- IC50 [1]: 0.4 nM
- IC50 [2]: 2670 nM
- IC50 [3]: 4110 nM

Compound: CN1Cc2cc(F)ccc2OCC(O)CNC(=O)c2cnn3ccc1nc23 (stereo not drawn) [Example 96, 12-fluoro-7-hydroxy-15-methyl-5,6,7,8,14,15-hexahydro-4H-1,16-ethenopyrazolo[4,3-g][1,5,9,11]benzoxatriazacyclotetradecin-4-one]
- IC50 [1]: 0.6 nM
- IC50 [2]: 6000 nM
- IC50 [3]: 5000 nM

Compound: C[C@H]1CNC(=O)c2cnn3ccc(nc23)N(C)Cc2cc(F)ccc2O1 [Example 97, (7S)-11-fluoro-7,14-dimethyl-6,7,13,14-tetrahydro-1,15-ethenopyrazolo[4,3-f][1,4,8,10]benzoxatriazacyclotridecin-4(5H)-one]
- IC50 [1]: 0.3 nM
- IC50 [2]: 6500 nM
- IC50 [3]: 1420 nM

Compound: O=C1NCCCOc2ccc(F)cc2C(CO)Nc2ccn3ncc1c3n2 (stereo not drawn) [Example 99, 12-fluoro-14-(hydroxymethyl)-5,6,7,8,14,15-hexahydro-4H-1,16-ethenopyrazolo[4,3-g][1,5,9,11]benzoxatriazacyclotetradecin-4-one]
- IC50 [1]: 6.3 nM
- IC50 [2]: 6850 nM
- IC50 [3]: 506 nM

Compound: CC1c2cc(F)ccc2OCCNC(=O)c2cnn3ccc(nc23)N1C (stereo not drawn) [Example 100, 11-fluoro-13,14-dimethyl-6,7,13,14-tetrahydro-1,15-ethenopyrazolo[4,3-f][1,4,8,10]benzoxatriazacyclotridecin-4(5H)-one]
- IC50 [1]: 0.6 nM
- IC50 [2]: 5830 nM
- IC50 [3]: 5360 nM

Compound: CC(C)(O)CN1Cc2cc(F)ccc2OCCNC(=O)c2cnn3ccc1nc23 [Example 101, 11-fluoro-14-(2-hydroxy-2-methylpropyl)-6,7,13,14-tetrahydro-1,15-ethenopyrazolo[4,3-f][1,4,8,10]benzoxatriazacyclotridecin-4(5H)-one]
- IC50 [1]: > 1000 nM
- IC50 [2]: 6000 nM
- IC50 [3]: > 10000 nM

Compound: O=C1NCCOc2ccc(F)cc2CCc2ccn3ncc1c3n2 [Example 102, 11-fluoro-6,7,13,14-tetrahydro-1,15-ethenopyrazolo[4,3-f][1,4,8]benzoxadiazacyclotridecin-4(5H)-one]
- IC50 [1]: 1.2 nM
- IC50 [2]: 2450 nM
- IC50 [3]: 2300 nM
